# Measured values from paper PMC7035787 (Molecular pharmaceutics, 2019).
# Tests used:
# [1] = Pulmonary retention in isolated perfused rat lung; format: in vitro ADME; conditions: rat, 3 mg/kg, 2 h
# [2] = tested on: lungs from sham and PAH rats; assay: Pulmonary retention in isolated perfused rat lung; format: in vitro ADME; conditions: IT route, sham and PAH lungs
# in vivo = conditions: male, Sprague-Dawley, rat, 3 mg/kg
smiles,measurement,setting,value
"O=S(=O)(c1cccc2cnccc12)N1CCCNCC1 [plain fasudil, fasudil]",recovery at 2 h,"[1]; IPRL tubes (circuitry), other: intratracheal (IT) via the tracheal cannula, pH 7.4, recovery dose (%) IPRL tubes, IT route, PAH lungs, by subtraction from dose",16.6 ± 7.7%
same,recovery at 2 h,"[1]; IPRL tubes (circuitry), other: intratracheal (IT) via the tracheal cannula, pH 7.4, recovery dose (%) IPRL tubes, IT route, Sham lungs, by subtraction from dose",7.4 ± 1%
same,recovery at 2 h,"[1]; lung homogenate, other: intratracheal (IT) via the tracheal cannula, pH 7.4, recovery dose (%) lung, IT route, PAH lungs, fasudil 3 mg/kg",70.1 ± 7.3%
same,recovery at 2 h,"[1]; lung homogenate, other: intratracheal (IT) via the tracheal cannula, pH 7.4, recovery dose (%) lung, IT route, Sham lungs, fasudil 3 mg/kg",71.8 ± 2%
same,recovery at 2 h,"[1]; lung homogenate, other: via the cannulated pulmonary artery, mimicking IV, pH 7.4, recovery dose (%) lung, IV-mimicking route, PAH lungs, fasudil 3 mg/kg",49.6 ± 6.2%
same,recovery at 2 h,"[1]; lung homogenate, other: via the cannulated pulmonary artery, mimicking IV, pH 7.4, recovery dose (%) lung, IV-mimicking route, Sham lungs, fasudil 3 mg/kg",34.7 ± 3.2%
same,recovery at 2 h,"[1]; perfusate, other: intratracheal (IT) via the tracheal cannula, pH 7.4, recovery dose (%) perfusate, IT route, PAH lungs, fasudil 3 mg/kg",13.3 ± 2.6%
same,recovery at 2 h,"[1]; perfusate, other: intratracheal (IT) via the tracheal cannula, pH 7.4, recovery dose (%) perfusate, IT route, Sham lungs, fasudil 3 mg/kg",20.8 ± 2.7%
same,recovery at 2 h,"[1]; perfusate, other: via the cannulated pulmonary artery, mimicking IV, pH 7.4, recovery dose (%) perfusate, IV-mimicking route, PAH lungs, fasudil 3 mg/kg",39.1 ± 3.9%
same,recovery at 2 h,"[1]; perfusate, other: via the cannulated pulmonary artery, mimicking IV, pH 7.4, recovery dose (%) perfusate, IV-mimicking route, Sham lungs, fasudil 3 mg/kg",56.5 ± 5.3%
same,drug concentration in the perfusate,[2],about 10 μg/mL
same,AUC(0-inf),in vivo,5967 ± 25.9 ng·h/mL
same,Cmax,in vivo; inhaled or intranasal,3040 ± 635 ng/mL
same,AUC(0-inf),in vivo; iv,5967 ± 25.9 ng·h/mL
